Laboratory results from EP1131073B1, “USE OF STAUROSPORINE DERIVATIVES FOR TREATING OCULAR NEOVASCULAR DISEASES” (Novartis AG, priority 1998, dated 2000).

Key:
[1] = system: endothelial cells of mature vessels; test: Effect on mature retinal vessels of adult mice, endothelial staining with image analysis; type: in vivo, Adult C57BL6J mice; settings: 600 mg/kg by gavage once a day for 5 days
Protocol: (§1) After 5 days of treatment, the mice are sacrificed, eyes are rapidly removed and frozen in optimum cutting temperature embedding compound (OCT; Miles Diagnostics, Elkhart, IN) or fixed in 10% phosphate-buffered formalin and embedded in paraffin. Adult C57BL6J mice are also treated by gavage with the drug or vehicle and after 5 days, they are sacrificed and their eyes are processed for frozen or paraffin sections.

[2] = system: choroidal neovascularization; test: Laser-induced rupture of Bruch's membrane, choroidal neovascularization in mice; type: in vivo, C57BL/6J mice; settings: 400 mg/kg/day orally by gavage
Protocol: C57BL/6J mice are treated in accordance with the Association for Research in Vision and Ophthalmology resolution for the treatment of animals. […] J Path, in press. Briefly, 4 to 5 week old male C57BL/6J mice are anesthetized with ketamine hydrochloride (100 mg/kg body weight) and the pupils are dilated with 1% tropicamide. Three bums of krypton laser photocoagulation (100 µm spot size, 0.1 seconds duration, 150 mW) are delivered to each retina using the slit lamp delivery system of a Coherent Model 920 Photocoagulator and a hand held cover slide as a contact lens. Bums are performed in the 9, 12, and 3 o'clock positions of the posterior pole of the retina. Production of a bubble at the time of laser, which indicates rupture of Bruch's membrane, is an important factor in obtaining CNV, so only mice in which a bubble is produced for all three bums are included. […] After 14 days, the mice are killed with an overdose of pentobarbital sodium, and their eyes are rapidly removed and frozen in optimal cutting temperature embedding compound (OCT). Frozen serial sections (10 µm) are cut through the entire extent of each burn and histochemically stained with biotinylated griffonia simplicifolia lectin B4 (Vector Laboratories, Burlingame, CA), which selectively binds to endothelial cells. Slides are incubated in methanol/H2O2 for 30 minutes at 4°C, washed with 0.05 M Tris-buffered saline, pH 7.4 (TBS), and incubated for 30 minutes in 10% normal swine serum. Slides are rinsed with 0.05M TBS and incubated 2 hours at 37°C with biotinylated lectin. After being rinsed with 0.05M TBS, slides are incubated with Streptavidin-phosphatase (Kirkegaard and Perry Laboratories, Cabin John, MD) for 30 minutes at room temperature. […]
To perform quantitative assessments, lectin-stained sections are examined with an Axioskop microscope (Zeiss, Thornwood, NY) and images are digitized using a 3 CCD color video camera (IK-TU40A, Toshiba, Tokyo, Japan) and a frame grabber. […]

[3] = system: retinal vascular development; test: Retinal vascular development in neonatal mice, fluorescein-dextran perfused retinal flat mounts; type: in vivo, newborn C57/BL6J mice; settings: 100 mg/kg daily subcutaneous
Protocol: Litters of newborn C57/BL6J mice (neonatal mice) are divided into treatment and control groups which received daily subcutaneous injections of 100 mg/kg of the drug or vehicle, respectively. At 7 or 10 days of age, the mice are anesthetized with ether, and perfused with 1 ml of phosphate-buffered saline containing 50 mg/ml of fluorescein-labeled dextran (2x10^6 average mw, Sigma, St. Louis, MO) as described by Tobe et al., Evolution of Neovascularization in Mice with Overexpression of VEGF in Photoreceptors, Invest. Ophthalmol. Vis. Sci. 39, 180-188 (1998). The eyes are removed and fixed for 1 hour in 10% phosphate-buffered formalin. The cornea and lens are removed and the entire retina is carefully dissected from the eyecup. Radially cuts are made from the edge of the retina to the equator in all 4 quadrants, and the retina is flat-mounted in Aquamount with photoreceptors facing upward. The flat mounts are examined by fluorescence microscopy, and the images are digitized using a 3 CCD color video camera and a frame grabber. Image-Pro™ Plus is used to measure the distance from the center of the optic nerve to the leading front of developing retinal vessels in each quadrant and the mean is used as a single experimental value.

[4] = system: retinal neovascularization; test: Oxygen-induced ischemic retinopathy in mice, lectin-stained retinal sections with image analysis; type: in vivo, C57/BL6J mice; settings: for clumps of neovascularization on the surface of the retina: compared to vehicle-treated control mice
Protocol: Ischemic retinopathy is produced in C57/BL6J mice by a method described by Smith et al., Oxygen-induced Retinopathy in the Mouse, Invest. Ophthalmol. Vis. Sci. 35, 101-111 (1994). Seven-day-old mice and their mothers are placed in an airtight incubator and exposed to an atmosphere of 75 ± 3% oxygen for 5 days. Incubator temperature is maintained at 23 ± 2°C, and oxygen is measured every 8 hours with an oxygen analyzer. After 5 days, the mice are removed from the incubator, placed in room air, and subjected to a drug treatment. […] Vehicle (1% DMSO) or vehicle containing various concentrations of the drug (volume = 10 µl per gram body weight) is placed in the stomach by gavage.
as §1
Slides are incubated in methanol/H2O2 for 10 minutes at 4°C, washed with 0.05 M Tris-buffered saline, pH 7.6 (TBS), and incubated for 30 minutes in 10% normal porcine serum. Slides are incubated 2 hours at room temperature with biotinylated lectin and after rinsing with 0.05M TBS, they are incubated with avidin coupled to peroxidase (Vector Laboratories) for 45 minutes at room temperature. After being washed for 10 minutes with 0.05 M TBS, slides are incubated with diaminobenzidine to give a brown reaction product. Some slides are counterstained with hematoxyln and all were mounted with Cytoseal.
To perform quantitative assessments, 10 µm serial sections are cut through half of each eye and sections roughly 50-60 µm apart are stained with lectin, providing 13 sections per eye for analysis. Lectin-stained sections are examined with an Axioskop microscope (Zeiss, Thornwood, NY) and images are digitized using a 3 CCD color video camera (IK-TU40A, Toshiba, Tokyo, Japan) and a frame grabber. Image-Pro Plus software (Media Cybernetics, Silver Spring, MD) is used to delineate lectin-stained cells on the surface of the retina and their area is measured. The mean of the 13 measurements from each eye is used as a single experimental value.

[5] = 300 mg/kg twice a day by gavage

CO[C@@H]1[C@H](N(C)C(=O)c2ccccc2)C[C@H]2O[C@]1(C)n1c3ccccc3c3c4c(c5c6ccccc6n2c5c31)C(=O)NC4 [NBS, N-benzoyl-staurosporine]
toxicity to endothelial cells of mature vessels [1]: not toxic | total area of endothelial staining in the retina or the appearance of retinal vessels ([1]; compared to vehicle-treated mice): no difference | integrated area of lectin staining per lesion ([2]; 14 days, vehicle alone 0.0695621 ± 0.0073960 mm^2, p=0.004): 0.009018 ± 0.001754 mm^2 | appearance of overlying retinal vessels ([2]; two weeks after laser): appear normal | choroidal neovascularization at the site of each laser-induced rupture of Bruch's membrane ([2]; two weeks after laser): very little if any | extension of retinal vessels ([3]; at 7 days of age): only extend slightly more than halfway to the periphery | extension of superficial capillary bed ([3]; at 10 days of age): has not yet reached the edge of the retina | endothelial cell staining on and in the retinas (image analysis) ([4]; 60 mg/kg once a day, compared to vehicle-treated mice): significantly less | endothelial staining within the retina ([4]; 60 mg/kg twice a day by gavage): some decrease | clumps of neovascularization on the surface of the retina ([4]; 60 mg/kg twice a day by gavage): less than clumps in the retina of the vehicle-treated control mice | endothelial staining within the retina [4, 5]: some decrease | clumps of neovascularization on the surface of the retina [4, 5]: less than clumps in the retina of the vehicle-treated control mice | endothelial cell staining in the inner nuclear layer and outer plexiform layer ([4]; 600 mg/kg once a day for 5 days): striking absence | endothelial cell staining on the surface and within the retina ([4]; 600 mg/kg once a day for 5 days by gavage, compared to vehicle-treated mice): dramatic decrease | endothelial cell staining within the retina ([4]; 600 mg/kg once a day for 5 days, compared to nonischemic mice): less than that of the nonischemic mice | endothelial cell staining on and in the retinas (image analysis) ([4]; 600 mg/kg once a day, compared to vehicle-treated mice): significantly less
